Paper PMC12546632, “The role of cytochrome bc1 inhibitors in future tuberculosis treatment regimens” (Nature Communications, 2025)
≈ marks a conversion by molar mass, not a printed value. Where “and” joins values, the source holds several entries; their conditions need not be identical. Equal entries are not always repeated. Entries after “also recorded” stand apart in the source; their conditions may differ. Where two headings read alike, the source gives them in different places. Marks after values point to notes of the source that are not given here.

Experiments:
1A2 = target: T1, 1A2 (Homo sapiens, UniProt P05177); type: in vitro ADME
T1 construct: from tissue; host or cells: human liver microsomes

2C8 = target: T2, 2C8 (Homo sapiens, UniProt P10632); type: in vitro ADME
T2 construct: from tissue; host or cells: human liver microsomes

M. tuberculosis H37Rv [1] = assay: MIC90 determination, H37Rv; type: cell-based, Mycobacterium tuberculosis; conditions: Mycobacterium tuberculosis, H37RV; read-out: MIC90 (H37Rv)
N1283 clinical isolate = type: cell-based, Mycobacterium tuberculosis; conditions: biological replicates
2C19 = target: T3, 2C19 (Homo sapiens, UniProt P33261); type: in vitro ADME
T3 construct: from tissue; host or cells: human liver microsomes

[2] = type: in vitro ADME; conditions: hepatocytes
in vitro [3] = conditions: human
[4] = system: M. tuberculosis reference strain H37Rv; assay: Survival under monotherapy in intravenous model (related to Study C); type: in vivo, Mycobacterium tuberculosis; conditions: intravenous model
3A4 = target: T4, 3A4 (Homo sapiens, UniProt P08684); type: in vitro ADME
T4 construct: from tissue; host or cells: human liver microsomes

H37Rv_CytBd-KO = assay: microbe, parasite or virus in culture; type: cell-based, Mycobacterium tuberculosis; conditions: Mycobacterium tuberculosis; read-out: MBC99.9 (H37Rv_CytBd-KO)
in vivo [5] = conditions: female, Balb/c, mouse, po, 5 mg/kg
HepG2 cells = conditions: human, 24 h
[6] = type: in vitro ADME
Experimental: (§1) Details of the metabolic stability in liver microsomes and hepatocytes together with CYP inhibition in human liver microsomes and plasma protein binding have been published previously. The CYP induction assay was conducted by Puracyp Inc (www.puracyp.com). Studies were designed to evaluate the effect of compounds on the activation of human PXR (hPXR). The DPX2TM cells harbour the human PXR gene (NR1I2) and a luciferase reporter gene linked to two promoters identified in the human CYP3A4 gene, namely XREM and PXRE. These cells were seeded in a 96-well plate. Twenty-four hours after seeding, the cells were treated with various concentrations of compounds then incubated for an additional 24 h. Following this, the number of viable cells per well were determined using Promega’s CellTiter Fluor Cytotoxicity Assay. Briefly, One-Glo was added to the same wells and reporter gene activity was assessed. The luminescence light intensity was directly proportional to the extent of PXR activation and accompanying gene transcription in the DPX2TM cells.

human PXR (hPXR) = human PXR (hPXR) (Homo sapiens, UniProt O75469); type: in vitro ADME
Experimental: as §1

H37Rv_CydBd-KO = assay: microbe, parasite or virus in culture; type: cell-based, Mycobacterium tuberculosis; conditions: Mycobacterium tuberculosis
in vitro [7] = conditions: human; remark: listed apart in the source
M. tuberculosis H37Rv [8] = assay: MBC99.9 determination, H37Rv; type: cell-based, Mycobacterium tuberculosis; conditions: Mycobacterium tuberculosis, H37RV
[9] = female, Balb/c, mouse, in vivo, po, 5 mg/kg
[10] = system: Salmonella typhimurium strains TA98 and TAMix
MDR-TB strains = conditions: cited from earlier work
[11] = CD-1, mouse, in vivo
[12] = system: M. tuberculosis ΔcydAB (Parent); assay: microbe, parasite or virus in culture; type: cell-based; conditions: Mycobacterium tuberculosis
WT H37Rv = type: cell-based, Mycobacterium tuberculosis; conditions: biological replicates
[13] = system: M. tuberculosis cytochrome bd knockout (CytBd-KO) strain; set-up: method as in PMID 40191462; conditions: acute mouse model; cited from earlier work
2C9 = target: T5, 2C9 (Homo sapiens, UniProt P11712); type: in vitro ADME
T5 construct: from tissue; host or cells: human liver microsomes

in vivo [14] = conditions: CD-1, mouse; for half-life: t½
2D6 = target: T6, 2D6 (Homo sapiens, UniProt P10635); type: in vitro ADME
T6 construct: from tissue; host or cells: human liver microsomes
T6 sequence (P10635 whole entry): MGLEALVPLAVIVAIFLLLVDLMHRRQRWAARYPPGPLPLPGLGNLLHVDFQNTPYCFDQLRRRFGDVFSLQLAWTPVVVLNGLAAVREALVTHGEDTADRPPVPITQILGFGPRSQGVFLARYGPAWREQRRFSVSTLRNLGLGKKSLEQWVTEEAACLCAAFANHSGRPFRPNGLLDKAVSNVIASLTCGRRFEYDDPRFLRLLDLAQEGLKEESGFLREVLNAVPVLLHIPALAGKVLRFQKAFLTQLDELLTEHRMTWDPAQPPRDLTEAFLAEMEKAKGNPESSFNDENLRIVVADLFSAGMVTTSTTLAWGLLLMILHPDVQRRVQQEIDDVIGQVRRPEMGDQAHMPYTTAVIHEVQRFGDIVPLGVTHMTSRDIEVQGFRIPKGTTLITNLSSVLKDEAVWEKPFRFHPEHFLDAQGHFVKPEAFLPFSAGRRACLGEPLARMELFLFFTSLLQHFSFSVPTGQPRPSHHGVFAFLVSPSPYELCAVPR

Chain of human PXR (hPXR) (O75469 whole entry): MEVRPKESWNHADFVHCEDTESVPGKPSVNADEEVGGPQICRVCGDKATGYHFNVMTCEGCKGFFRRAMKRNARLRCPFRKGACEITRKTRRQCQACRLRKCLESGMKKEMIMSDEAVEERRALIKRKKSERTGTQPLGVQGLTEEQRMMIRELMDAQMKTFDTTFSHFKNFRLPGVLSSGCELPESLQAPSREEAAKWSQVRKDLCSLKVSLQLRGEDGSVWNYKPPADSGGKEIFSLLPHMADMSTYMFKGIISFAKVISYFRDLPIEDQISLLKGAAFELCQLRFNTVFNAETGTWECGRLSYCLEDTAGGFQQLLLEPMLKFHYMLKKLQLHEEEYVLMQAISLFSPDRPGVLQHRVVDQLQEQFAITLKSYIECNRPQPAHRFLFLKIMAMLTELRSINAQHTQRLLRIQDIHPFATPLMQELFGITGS
T3 sequence (P33261 whole entry): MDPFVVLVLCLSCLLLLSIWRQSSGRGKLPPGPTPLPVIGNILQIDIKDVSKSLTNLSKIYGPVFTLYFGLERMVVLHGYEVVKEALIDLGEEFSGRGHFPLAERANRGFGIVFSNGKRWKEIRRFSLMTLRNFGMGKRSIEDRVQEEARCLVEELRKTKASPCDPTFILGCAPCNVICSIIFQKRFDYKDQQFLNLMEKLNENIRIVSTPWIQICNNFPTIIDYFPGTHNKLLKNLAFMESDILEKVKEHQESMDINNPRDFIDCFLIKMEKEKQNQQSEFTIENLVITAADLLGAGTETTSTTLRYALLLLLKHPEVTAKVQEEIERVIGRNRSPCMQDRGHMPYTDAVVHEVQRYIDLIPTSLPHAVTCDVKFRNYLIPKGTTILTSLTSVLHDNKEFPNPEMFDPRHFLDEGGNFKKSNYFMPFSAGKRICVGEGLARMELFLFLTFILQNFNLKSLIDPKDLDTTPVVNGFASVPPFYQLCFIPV
T4 sequence (P08684 whole entry): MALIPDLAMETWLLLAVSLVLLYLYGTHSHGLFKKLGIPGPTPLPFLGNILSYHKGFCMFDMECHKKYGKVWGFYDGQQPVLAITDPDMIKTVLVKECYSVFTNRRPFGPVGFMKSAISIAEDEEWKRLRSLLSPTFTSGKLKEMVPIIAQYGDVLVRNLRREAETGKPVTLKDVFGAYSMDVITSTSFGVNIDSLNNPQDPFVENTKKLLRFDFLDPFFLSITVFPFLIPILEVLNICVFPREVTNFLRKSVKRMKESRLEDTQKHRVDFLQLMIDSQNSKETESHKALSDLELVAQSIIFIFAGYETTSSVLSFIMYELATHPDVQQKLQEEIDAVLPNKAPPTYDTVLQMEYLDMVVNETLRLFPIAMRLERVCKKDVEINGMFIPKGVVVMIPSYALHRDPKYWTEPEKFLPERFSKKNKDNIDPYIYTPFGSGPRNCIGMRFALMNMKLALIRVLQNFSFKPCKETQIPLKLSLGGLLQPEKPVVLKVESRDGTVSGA
T2 sequence (P10632 whole entry): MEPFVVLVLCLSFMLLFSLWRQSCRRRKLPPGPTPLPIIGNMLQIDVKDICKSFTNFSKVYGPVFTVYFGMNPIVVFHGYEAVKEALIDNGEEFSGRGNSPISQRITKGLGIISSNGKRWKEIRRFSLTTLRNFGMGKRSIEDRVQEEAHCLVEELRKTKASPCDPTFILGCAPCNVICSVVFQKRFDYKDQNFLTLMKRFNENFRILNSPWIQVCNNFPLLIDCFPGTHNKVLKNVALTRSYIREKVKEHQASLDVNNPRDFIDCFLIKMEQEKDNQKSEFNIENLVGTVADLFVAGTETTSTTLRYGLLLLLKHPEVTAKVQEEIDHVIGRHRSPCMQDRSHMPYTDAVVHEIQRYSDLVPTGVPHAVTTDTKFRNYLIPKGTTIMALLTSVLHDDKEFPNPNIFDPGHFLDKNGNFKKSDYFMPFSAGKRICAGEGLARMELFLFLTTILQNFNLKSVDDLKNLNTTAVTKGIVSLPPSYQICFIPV
T5 sequence (P11712 whole entry): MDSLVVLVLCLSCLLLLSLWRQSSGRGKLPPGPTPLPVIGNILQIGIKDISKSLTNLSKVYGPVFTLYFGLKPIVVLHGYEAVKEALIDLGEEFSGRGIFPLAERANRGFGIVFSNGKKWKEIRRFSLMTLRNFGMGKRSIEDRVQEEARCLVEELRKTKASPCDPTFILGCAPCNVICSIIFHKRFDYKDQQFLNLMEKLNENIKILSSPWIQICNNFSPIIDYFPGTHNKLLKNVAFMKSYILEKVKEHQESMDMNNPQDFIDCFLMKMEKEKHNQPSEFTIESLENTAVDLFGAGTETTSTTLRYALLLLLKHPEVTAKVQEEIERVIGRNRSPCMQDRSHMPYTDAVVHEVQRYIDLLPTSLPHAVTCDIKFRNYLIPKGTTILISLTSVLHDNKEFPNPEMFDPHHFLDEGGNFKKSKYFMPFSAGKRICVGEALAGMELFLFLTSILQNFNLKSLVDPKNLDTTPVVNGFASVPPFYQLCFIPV
T1 sequence (P05177 whole entry): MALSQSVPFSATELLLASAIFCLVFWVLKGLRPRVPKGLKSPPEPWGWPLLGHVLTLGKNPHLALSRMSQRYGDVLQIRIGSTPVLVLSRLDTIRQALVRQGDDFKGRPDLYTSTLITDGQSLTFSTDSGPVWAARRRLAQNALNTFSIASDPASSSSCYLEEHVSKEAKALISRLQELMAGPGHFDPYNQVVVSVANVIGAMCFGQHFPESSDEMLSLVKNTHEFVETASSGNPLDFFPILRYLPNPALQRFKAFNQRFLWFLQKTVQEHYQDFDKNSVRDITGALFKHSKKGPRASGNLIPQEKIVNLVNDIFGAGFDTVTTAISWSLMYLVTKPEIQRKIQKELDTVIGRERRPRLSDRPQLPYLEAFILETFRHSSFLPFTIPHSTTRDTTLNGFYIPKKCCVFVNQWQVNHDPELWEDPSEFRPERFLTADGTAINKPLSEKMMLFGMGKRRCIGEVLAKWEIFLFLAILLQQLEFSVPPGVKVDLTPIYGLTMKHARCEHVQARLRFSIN

For `CCc1nc2ccc(Cl)cn2c1C(=O)NCc1ccc(C2CC3(C2)CN(S(=O)(=O)C(F)(F)F)C3)cc1` [JNJ-2901], the IC50 (1A2) was greater than 10 µM, the IC50 (2C8) was greater than 10 µM and the MIC90 (M. tuberculosis H37Rv [1]) was 0.009 µM (≈ 4.87 ng/mL). The CFU counts (N1283 clinical isolate; Conc 8 nM) was 9000000 CFU and 800000 CFU and 200000 CFU, the CFU counts (N1283 clinical isolate; Conc 32 nM) was 110000 CFU and 300000 CFU and 80000 CFU and 50000 CFU and the CFU counts (N1283 clinical isolate; Conc 128 nM) was 20000 CFU and 50000 CFU and 90000 CFU and 80000 CFU. For the same compound, the IC50 (2C19) was greater than 10 µM, the “Mouse Hep Clint” value [2] was 15 µL min-1 106 cells-1 and the IC20 at 72 h (in vitro [3]) was 11.8 µM. The “Day of death, individual mice” value ([4]; monotherapy, read with the 1/0 flag of the same line (96 with flag 0), listed as J-901) was 16* and 20 and 54 and 26 and 77 and 82, the “Survival of mice under monotherapy” value ([4]; six mice per group, treated for three months, 5 days per week, bedaquiline 25, moxifloxacin 100, JNJ-2901 10 mg kg-1) was “inability to rescue mice” and the IC50 (3A4) was greater than 10 µM. It also gave an MBC (H37Rv_CytBd-KO) of 0.015 µM (≈ 8.11 ng/mL), a Cmax (in vivo [5]) of 2310 ± 767 ng/mL and an AUC0-inf (in vivo [5]; AUC0-inf) of 38500 ng·h/mL. The Cmax (in vivo [5]; Cmax, Balb/c mouse, PO 5 mg kg-1, 0.5 w/v Methocel (susp.)) was 2660 ± 469 ng/mL, the half-life (in vivo [5]; t½) was 8.6 ± 2.8 h and the IC50 (HepG2 cells) was greater than 100 µM. The “Dog Hep Clint” value ([6]; hepatocytes) was 13 µL min-1 106 cells-1, the “Human Hep Clint” value ([6]; hepatocytes) was 10 µL min-1 106 cells-1 and the “Rat Hep Clint” value ([6]; hepatocytes) was 16 µL min-1 106 cells-1. The “Dog LM Clint” value ([6]; microsomes) was 13.1 µL min-1 mg protein-1, the “Human LM Clint” value ([6]; microsomes) was 63.3 µL min-1 mg protein-1 and the “Mouse LM Clint” value ([6]; microsomes) was 41.0 µL min-1 mg protein-1. The “Rat LM Clint” value ([6]; microsomes) was 17.9 µL min-1 mg protein-1, the “Cyp3A4 ind. (%ctrl)” value (human PXR (hPXR); 1.25 µM) was 3.1 %ctrl and the “Cyp3A4 ind. (%ctrl)” value (human PXR (hPXR); 10 µM) was 11 %ctrl. For the same compound, the MIC90 (H37Rv_CydBd-KO) was 0.006 µM (≈ 3.25 ng/mL), the IC50 at 24 h (in vitro [7]) was greater than 100 µM and the MBC (M. tuberculosis H37Rv [8]) was greater than 0.5 µM. The AUC0-inf [9] was 28500 ± 935 ng·h/mL, the “Mutagenicity (AMES II)” value [10] was “negative” and the “activity against MDR-TB strains” value (MDR-TB strains) was “sub-nanomolar; also recorded: more active compared to lab-adapted strains”. For the same compound, the “CLp as % LBF” value ([11]; iv, 1 mg/kg) was ~ 9 % LBF, the AUC0-inf ([11]; female, po, 5 mg/kg) was 5287 ± 656 ng·h/mL and the MIC50 [12] was 0.01 µM (≈ 5.41 ng/mL). The CFU counts (WT H37Rv; Conc 8 nM) was 80000000 CFU and 35000000 CFU and 53000000 CFU and 30000000 CFU, the CFU counts (WT H37Rv; Conc 32 nM) was 60000000 CFU and 30000000 CFU and 17000000 CFU and 12000000 CFU and the CFU counts (WT H37Rv; Conc 128 nM) was 20000000 CFU and 14000000 CFU and 12000000 CFU. For the same compound, the “reduction in bacterial burden” value [13] was 4 log, the IC50 (2C9) was greater than 10 µM and the MRT (in vivo [14]; iv, 1 mg/kg) was 9.1 ± 0.6 h. It also gave a Vd (in vivo [14]; iv, 1 mg/kg) of 4.4 ± 0.8 L/kg, a clearance (in vivo [14]; iv, 1 mg/kg) of 6.4 ± 1.6 mL/min/kg and a half-life (in vivo [14]; iv, 1 mg/kg) of 12 ± 0.2 h. The bioavailability (in vivo [14]; female, po, 5 mg/kg) was 70 ± 14%, the AUC0-inf (in vivo [14]; female, po, 5 mg/kg, AUC0-inf) was 9500 ± 1850 ng·h/mL and the Cmax (in vivo [14]; female, po, 5 mg/kg, Cmax) was 474 ± 29 ng/mL. For the same compound, the Tmax (in vivo [14]; female, po, 5 mg/kg, Tmax) was 7 h, the half-life (in vivo [14]; female, po, 5 mg/kg) was 10 h and the IC50 (2D6) was greater than 10 µM.
